From US11458138B2 (Novartis AG, priority 2017, dated 2022)
Entries after “also recorded” stand apart in the source; their conditions may differ.

How the values were obtained:
[1] = tested on: YAP translocation in Corneal Endothelial Cells (CECs); test: YAP nuclear translocation in Corneal Endothelial Cells (CECs); type: cell-based, human
YAP in human LSCs = test: Intracellular YAP distribution in limbal epithelial cells (LSCs); type: cell-based; conditions: 10 micromolar, 24 hours, vs DMSO
Protocol: Cells obtained as described in Example B1 were plated in glass-bottom black wall 24-well dishes in limbal epithelium cell culture medium (DMEM F12 supplemented with 10% human serum and 1.3 mM calcium chloride) supplemented with LATS inhibitor compound example no. […] Cells were cultured under these conditions for 24 hours at 37° C. in 5% CO2.
To measure the effect of the LATS inhibitors on the downstream target YAP, intracellular YAP distribution was analyzed by immunohistochemistry. Cell cultures were fixed with 4% PFA for 20 minutes, permeabilized and blocked in a blocking solution of 0.3% Triton X-100 (Sigma-Aldrich) and 3% donkey serum in PBS for 30 minutes. Cells were then labeled with primary antibody in the blocking solution for 12 hours at 4° C. Primary antibody used was anti-YAP from Santa Cruz Biotechnology. Samples were washed in PBS three times and donkey-raised secondary antibody Alexa Fluor 488 (Molecular Probes) at 1:500 dilution were applied for 30 minutes at room temperature. […] Fluorescence was observed using a Zeiss LSM 880 confocal microscope.

[2] = tested on: human corneal endothelial cells (CECs); test: Human corneal endothelial cell population expansion, cell confluence (Incucyte); type: cell-based; conditions: 10 micromolar, 10 days
Protocol: Cells obtained as described in Example C1 were detached from the culture dish with 100 microlitres of Accutase (ThermoFisher) for 10 minutes at 37° C., cell suspensions were rinsed by centrifugation and plated in corneal endothelial cell culture medium (human endothelial SF medium (Invitrogen) with human serum) in 6-well plates (Corning) supplemented with LATS inhibitor compound example no. […] Cells were cultured at 37° C. in 5% CO2.
To measure cell proliferation, an Incucyte machine was used following the manufacturer's instructions (Essen Biosciences) to perform real-time quantitative live-cell analysis of cell confluence every 3 hours for 10 days.

[3] = tested on: human corneal endothelial cells (CECs); test: CEC population expansion, markers Collagen 8a2, AQP1, SLC4A11, RPE65, CD31 and Na/K ATPase (RT-PCR, immunohistochemistry); type: cell-based; conditions: 10 micromolar, 10 days
Protocol: In order to verify that the expanded cell population expresses genes normally expressed by corneal endothelial cells in vivo, cells were cultured and RT-PCR analysis was then performed to measure the expression levels of Collagen 8a2, AQP1, SLC4A11, RPE65 and CD31. Immunohistochemical analysis was also performed to analyse the levels of Na/K ATPase and Collagen 8a2 as follows.
Cells were cultured at 37° C. in 5% CO2 for 10 days.
To perform the RT-PCR analysis, total RNA was extracted using Trizol (Invitrogen), RNeasy Mini and QIA Shredder (Qiagen) according to manufacturer's protocol. RNA quality and quantity were measured using Nanodrop 100 (Thermo-Fisher Scientific) and Bioanalyzer 2100 (Agilent Technologies). cDNA was prepared by reverse transcription and relative mRNA expression was assessed by quantitative RT-PCR using an 7900HT system (Applied Biosystems). The following cycling parameters were used:
1) 50° C. for 2 minutes; 2) 95° C. for 10 minutes; 3) 95° C. for 15 seconds 4) 60° C. for 1 minute. Steps 3-4 were repeated 40 times.
Actin mRNA levels were measured and used as a endogenous controls to normalize gene expression levels and calculate delta Ct values according to the formula dCt=Ct for gene of interest−Ct for endogenous control. Primers were obtained from Applied Biosystems. […]

[4] = tested on: pYAP (Ser127) in human HaCaT cells; test: Target Identification Assay: western blot for pYAP in HaCaT cell lysates; type: cell-based; conditions: 9 μM for 1 hour in the presence of 0.5 μM Okadaic acid
Protocol: Compounds of Formula A1, or subformulae thereof, selectively target LATS1/2 versus MST1/2 kinases. To identify the target of the hits from the YAP translocation assay screen, the Target Identification Assay as described in the Examples Section A was performed. The results of the assay are described in FIGS. 33A to 33C.
It is consistent with the consensus in the field that LATS is responsible for YAP phosphorylation.

mouse dorsal skin = test: In Vivo Histology and Ki67 Staining Assay (skin cell proliferation); conditions: intact mouse dorsal skin, topical, three days of twice-a-day dosing, vs vehicle
Protocol: Further, the compounds of the invention increase skin cell proliferation in vivo when applied topically. The study was conducted as described the “In Vivo Histology and Ki67 Staining Assay” in the Examples Section A. Example 133 or vehicle were applied to intact mouse dorsal skin. After three days of twice-a-day dosing, the skin samples were collected and subjected to immunohistology staining for Ki67. The sections were evaluated visually for cell proliferation and for the abundance of Ki67 positive cells. The study results are documented in FIGS. 35A and 35B.
FIG. 35B compares the abundance of Ki67 positive cell in untreated and treated mouse skin. […] Also, by using siRNA to knockdown both LATS1 and LATS2, LATS as a negative regulator of the YAP pathway has also been validated.

CTGF mRNA in liver = test: In vivo treatment of mice: quantitative RT-PCR, CTGF; conditions: mouse liver, single oral dose 10 mg/kg, 2 h post-dose, relative to vehicle, mean+/-SEM
Protocol: All animal studies were carried out in accordance with federal, state, local and institutional guidelines governing the use of laboratory animals in research. Male C57BL/6J mice (age 8-10 weeks) were purchased from Jackson Labs (Bar Harbor, Me.). Example 46 was formulated for oral dosing at 3 mg/ml, and Example 261 at 1 mg/ml, in a suspension of methylcellulose:Tween80:Water (0.5:0.5:99). Single oral dose of either compound was at 10 mL/kg body weight. Blood and liver tissue were collected under deep anesthesia (isoflurane) at either 2 h post-dose (for mRNA analysis) or 24 h post-dose (for immunohistochemistry).
Total liver RNA was isolated from tissue after storage in RNAlater reagent (Qiagen), using a TRIzol method according to the manufacturer's instructions (Life Technologies). Relative mRNA abundance was measured by quantitative RT-PCR using TaqMan gene expression assays and reagents according to standard protocols (Applied Biosystems). Mouse probes for YAP target genes were CTGF (Mm01192933_g1) and Cyr61 (Mm00487498_m1). […] Relative changes in mRNA were calculated by the ΔΔCt method. Changes in gene expression with compound treatment are expressed as fold-change relative to the vehicle group.

Structure (SMILES) | translocation of YAP into the nucleus in CECs [1] | YAP immunostaining in the nucleus of LSCs (YAP in human LSCs) | Proliferation of human CECs (percentage confluence over time) [2] | Expression of corneal endothelial cell genes by the expanded CEC population [3] | pYAP by western blot [4] | abundance of Ki67 positive cells (mouse dorsal skin) [%] | basal cell proliferation and epidermal thickness (mouse dorsal skin) | CTGF mRNA (fold-change) (CTGF mRNA in liver)
CC(C)(O)CC(C)(C)Nc1nc(-c2ccncc2)nc2cnccc12 [Example 49, 2,4-dimethyl-4-{[2-(pyridin-4-yl)pyrido[3,4-d]pyrimidin-4-yl]amino}pentan-2-ol] | induce translocation of YAP into the nucleus | stronger in the nucleus | could activate proliferation in these cells | express genes normally expressed by corneal endothelial cells in vivo, including Collagen 8a2, AQP1, SLC4A11; also recorded: express genes normally expressed by corneal endothelial cells in vivo, including Na/K ATPase |  |  |  | 
Cc1n[nH]cc1-c1nc(NC2(C)CC2)c2ccncc2n1 [Example 133, 2-(3-methyl-1H-pyrazol-4-yl)-N-(1-methylcyclopropyl)pyrido[3,4-d]pyrimidin-4-amine] | induce translocation of YAP into the nucleus | stronger in the nucleus | could activate proliferation in these cells |  | dramatically inhibited | 10 | significant increase in basal cell proliferation and epidermal thickness; also recorded: increased basal layer skin cell growth | 
CC(C)(C)Nc1cc(-c2ccncc2)nc2cnccc12 [Example 261, N-(tert-butyl)-2-(pyridin-4-yl)-1,7-naphthyridin-4-amine] |  |  |  |  |  |  |  | 2.5 (+/−0.2) fold-change
